Experimental data taken from ChEMBL document CHEMBL5344465, “Innovations in Pharmacology: Enhancing Bioavailability and Efficacy through Novel Compositions” (ACS Med Chem Lett, 2024).
The source made the active and inactive calls.

Legend:
Type in all cases: functional, cell-based
[1] = tested on: Small intestinal epithelial cell; experiment: Antiinflammatory activity against TNFalpha/INFgamma induced human small intestinal epithelial cells assessed as reduction in COX-2 level
[2] = tested on: Small intestinal epithelial cell; experiment: Antiinflammatory activity against TNFalpha/INFgamma induced human small intestinal epithelial cells assessed as reduction in IL-6 level
[3] = tested on: A 172; experiment: Neuroprotective activity against human A-172 cells assessed as effect on GABA level
[4] = tested on: A 172; experiment: Neuroprotective activity against human A-172 cells assessed as effect on BDNF level

Measured: Activity

CN(C)CCc1c[nH]c2cccc(OP(=O)(O)O)c12
active: all assays above

C=CCc1ccc(O)c(OC)c1
active: all assays above
